3 compounds from article PMC9268102, “Design, Synthesis and Biological Evaluation of 1,3,5-Triazine Derivatives Targeting hA1 and hA3 Adenosine Receptor” (Molecules, 2022) can be followed below.

What all share (assay type): cell-based
The target in experiment [1] is T1, hA1 AR (Homo sapiens, UniProt P30542).
T1 construct: host or cells: CHO-A1 (CHO cells expressing hA1 AR)
T1 sequence (P30542 1-326): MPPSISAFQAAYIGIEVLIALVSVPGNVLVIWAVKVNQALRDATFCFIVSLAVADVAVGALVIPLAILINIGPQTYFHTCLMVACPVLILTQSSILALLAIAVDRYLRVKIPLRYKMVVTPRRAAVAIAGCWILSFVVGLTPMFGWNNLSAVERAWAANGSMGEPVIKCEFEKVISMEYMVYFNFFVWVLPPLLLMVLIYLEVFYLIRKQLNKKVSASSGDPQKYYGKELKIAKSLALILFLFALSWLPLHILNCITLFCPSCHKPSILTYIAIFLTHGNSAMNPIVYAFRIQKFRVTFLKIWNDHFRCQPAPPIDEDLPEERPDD
In words: cAMP accumulation assay, antagonist mode, hA1 AR. The note with it: in presence of NECA, CHO-A1 cells. The text has this: (§1) To determine whether 1,3,5-triazine scaffold derivatives behave as agonists or antagonists, we performed cAMP accumulation assays with 11a and 11b at hA1 and hA3 AR. We confirmed whether the test compounds behave as antagonists by measuring the concentration change in cAMP in the presence of a full agonist 5-N-ethylcarboxamido adenosine (NECA) using antagonist mode assays. We also confirmed whether the test compounds could behave as agonists by comparing the relative percentage activation of NECA using agonist mode assays.
(§2) hA1 and hA3 AR functional experiments were carried out in CHO-A1 and CHO-A3#18 cell line, respectively. The day before the assay, the cells were seeded on the 96-well culture plate (Falcon 353072). The cells were washed with wash buffer (Nutrient Mixture F12 Ham’s (Sigma N6658) for hA1 AR; Dulbecco’s modified eagle’s medium nutrient mixture F-12 ham (Sigma D8062) for hA3 AR; 25 mM Hepes; pH = 7.4). Wash buffer was replaced by incubation buffer (Mixture F12 Ham’s (Sigma N6658) for hA1 AR; Dulbecco’s modified eagle’s medium nutrient mixture F-12 ham (Sigma D8062) for hA3 AR; 25 mM Hepes, 20 µM Rolipram (Sigma R6520); pH = 7.4). […] After incubation, the amount of cAMP was determined using cAMP Biotrak Enzyme immunoassay (EIA) System Kit (GE Healthcare RPN225).
(In general: Changes in cAMP serve as a functional read-out for many G protein-coupled receptors.)

Experiment [2] deals with T2, hA3 AR (Homo sapiens, UniProt P0DMS8).
T2 sequence (P0DMS8 1-318): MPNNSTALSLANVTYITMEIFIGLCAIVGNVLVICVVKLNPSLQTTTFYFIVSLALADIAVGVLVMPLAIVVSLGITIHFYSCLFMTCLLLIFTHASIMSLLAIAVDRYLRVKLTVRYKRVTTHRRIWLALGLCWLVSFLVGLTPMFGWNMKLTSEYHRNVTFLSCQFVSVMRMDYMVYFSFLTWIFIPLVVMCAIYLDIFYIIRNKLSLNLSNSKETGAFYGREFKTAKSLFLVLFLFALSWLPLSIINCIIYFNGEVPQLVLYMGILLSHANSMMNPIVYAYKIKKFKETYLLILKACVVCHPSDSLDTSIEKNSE
The experiment can be described thus: cAMP accumulation assay, antagonist mode, hA3 AR. More on the design: expressed in transfected cells. As to conditions: in presence of NECA, CHO-A3#18 cells.
From the text: as §1, §2

For experiment [3], the target named is T2, hA3 AR. The experiment can be described thus: cAMP accumulation assay, agonist mode, hA3 AR. Also noted: expressed in transfected cells. The note with it: relative to NECA, CHO-A3#18 cells.
From the text: as §1
(§3) hA1 and hA3 AR functional experiments were carried out in CHO-A1 and CHO-A3#18 cell line, respectively. The day before the assay, the cells were seeded on the 96-well culture plate (Falcon 353072). The cells were washed with wash buffer (Mixture F12 Ham’s (Sigma N6658) for hA1 AR; Dulbecco’s modified eagle’s medium nutrient mixture F-12 ham (Sigma D8062) for hA3 AR; 25mM Hepes; pH = 7.4). Wash buffer was replaced by incubation buffer (Mixture F12 Ham’s (Sigma N6658) for hA1 AR; Dulbecco’s modified eagle’s medium nutrient mixture F-12 ham (Sigma D8062) for hA3 AR; 25 mM Hepes, 20 µM Rolipram (Sigma R6520); pH = 7.4). The cells were pre-incubated at 37 °C for 15 min. […] After incubation, the amount of cAMP was determined using cAMP Biotrak Enzyme immunoassay (EIA) System Kit (GE Healthcare RPN225).

In experiment [4] the target is T1, hA1 AR. In words: cAMP accumulation assay, agonist mode, hA1 AR. As to conditions: relative to NECA, CHO-A1 cells.
From the text: as §1, §3

A further experiment relates to A549 cells. The experiment can be described thus: Cell viability (MTS) assay in A549 cells. As to conditions: Homo sapiens, 48 h. The method, then:
(§4) To test the effect of the compounds in terms of cell growth regulation in lung cancer cell lines such as A549 and NCI-H1299 cells, these cells were treated in 96-well plates for 48 h with the compounds at concentrations ranging from 0 μM to 100 μM. […] Therefore, we decided to perform an additional experiment with 9c.
(§5) A549 and NCI-H1299 cells were seeded in 96-well plates at a density of 1 × 10^5 cells per well for 24 h before being exposed to compounds at various concentrations. After 48 h of compound treatment, the CellTiter 96 AQueous One Solution Cell Proliferation Assay Kit (Promega, Madison, WI, USA) was used to conduct a cell viability assay. The cells were incubated with solution reagents for 2 h at 37 °C before being measured for absorbance at 490 nm using a Synergy HTX Multi-Mode microplate reader (BioTek Instruments, Inc., Winooski, VT, USA).

Another experiment deals with NCI-H1299 cells. In words: Cell viability (MTS) assay in NCI-H1299 cells. The note with it: Homo sapiens, 48 h. Here is the method:
as §4, §5

Consider `COc1ccc(-c2nc(N)nc(Nc3ccc(OC)c(F)c3)n2)cc1` [Compound 11a, N^2-(3-fluoro-4-methoxyphenyl)-6-(4-methoxyphenyl)-1,3,5-triazine-2,4-diamine], for which the “Percentage inhibition in antagonist mode, hA1 AR” value on hA1 AR [1] is 1%. Moreover, the “Percentage inhibition in antagonist mode, hA3 AR” value at hA3 AR [2] was 77%. Besides, the “Percentage activation in agonist mode, hA3 AR” value at hA3 AR [3] was determined as 17%. Moreover, the “Percentage activation in agonist mode, hA1 AR” value at hA1 AR [4] is given as 11%.
What is called viability is the share of living cells, or the viability signal relative to a control. In the case of `COc1cc(Nc2nc(N)nc(-c3ccc(O)cc3)n2)ccc1Cl` [Compound 9c, 4-{4-amino-6-[(4-chloro-3-methoxyphenyl)amino]-1,3,5-triazin-2-yl}phenol], the viability at 25 µM with A549 cells was found to be 59.9%; in the experiment on NCI-H1299 cells, 68.8%.
For `COc1ccc(Nc2nc(N)nc(-c3ccc(F)cc3)n2)cc1F` [Compound 11b, N^2-(3-fluoro-4-methoxyphenyl)-6-(4-fluorophenyl)-1,3,5-triazine-2,4-diamine], at hA1 AR [1], the “Percentage inhibition in antagonist mode, hA1 AR” value is reported as 60%. Further, on hA3 AR [2], the “Percentage inhibition in antagonist mode, hA3 AR” value is given as 88%. The “Percentage activation in agonist mode, hA3 AR” value at hA3 AR [3] is listed as 6%. Further, the “Percentage activation in agonist mode, hA1 AR” value on hA1 AR [4] worked out at 23%.
